The subject of one test is N. gonorrhoeae FA19. The experiment in a line: Liquid broth MIC, N. gonorrhoeae FA19. Particulars: Neisseria gonorrhoeae; N. gonorrhoeae FA19, liquid broth; read-out: Minimum Inhibitory Concentration, N. gonorrhoeae FA19. The test is classed as cell-based. Put shortly: (§1)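 Visual MIC: lowest concentration well showing no bacterial growth after 40-42 h at 36° C in 5% CO2. Inoculum 5×10^5 CFU/mL from colonies swabbed into GC broth, set by OD600; compounds in 2-fold serial dilution.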

Another test concerns the target E. coli PBP3 (Escherichia coli (strain K12), UniProt P0AD68). Nature of the test: E. coli PBP3 Bocillin-FL fluorescence polarization competition binding assay. An outline of the steps:
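Purified PBP (1.5 μM final) was combined with test compound (0–1000 μM) and Bocillin-FL (fluorescent penicillin V, 0.1 μM final) in 50 mM Hepes pH 8.0, 300 mM NaCl, 5% glycerol.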
In general terms: In fluorescence polarisation assays a small probe gives low polarisation when free and higher when bound to something large.

Another test concerns N. gonorrhoeae FA1090. Nature of the test: Liquid broth MIC, N. gonorrhoeae FA1090. Type of test: cell-based. Particulars: Neisseria gonorrhoeae; N. gonorrhoeae FA1090, liquid broth; read-out: Minimum Inhibitory Concentration, N. gonorrhoeae FA1090. Put shortly: as §1
The subject of the next test is N. gonorrhoeae WHO F. The experiment in a line: Liquid broth MIC, N. gonorrhoeae WHO F. Type of test: cell-based. The conditions noted are these: Neisseria gonorrhoeae; N. gonorrhoeae WHO F, liquid broth; read-out: Minimum Inhibitory Concentration, N. gonorrhoeae WHO F. Put shortly:
as §1

Test [1] concerns engineered strain of Escherichia coli harboring CTX-M15. The experiment in a line: microbe, parasite or virus in culture. The test is classed as cell-based. The conditions noted are these: Escherichia coli, read-out: Microbiological Activity (MIC in mg/L), E. coli DH5α/pLBII-CTX-M15, engineered strain producing CTX-M15. On the procedure:
Briefly, cryo-preserved bacterial cultures of challenge strains are streaked for isolation on appropriate agar medium, in this case Mueller Hinton II agar. Following incubation to allow growth of the colonies, plates are sealed with parafilm and stored refrigerated for up to two weeks. For preparation of assay inoculum and to ensure low variability, at least 5 colonies are picked from the agar plates with an inoculating loop and aseptically transferred to a culture tube containing 3 mL of Mueller-Hinton Broth (supplemented with divalent cations to required levels based on Manufacturers' certification). The broth culture is grown for 3-5 hours at 37° C. with shaking at 200 rpm. Meanwhile, 2-fold serial dilutions of test compounds are conducted in a 96 well plate with a final volume of 75 μL per well at 2-fold the final desired concentration. After the dilution plates are set up the growing cultures are then diluted in a cuvette containing MH II broth and the optical density is measured at 600 nm. The Inoculum is diluted such that 75 μL of this culture in Mueller-Hinton Broth results in a starting bacterial concentration of 5×10^5 CFU/mL when added to the dilution plates. The plates are incubated for 16-20 hours at 37° C. The MIC values are read visually as the lowest concentration well with no bacterial growth.
To determine if test compounds were affected by CTX-M15, the most abundant extended spectrum […] in clinical settings worldwide, the inhibition of the growth of an engineered strain of Escherichia coli harboring CTX-M15 was tested. This strain was constructed by cloning the gene encoding CTX-M15 into the NdeI and BamHI restriction endonuclease sites of plasmid pLBII, placing the gene(s) under the control of the Lac promoter. The constructed expression plasmid for CTX-M15 was used to transform competent E. coli DH5α cells to make the engineered strain, including an empty pLBII vector control strain. The classic cell based broth microdilution MIC assay was employed as described above with the addition of control antibiotics, known to be degraded by β-lactamases (Ceftazidime, piperacillin and piperacillin+tazobactam).

The subject of test [2] is N. gonorrhoeae ATCC 49226. Nature of the test: Liquid broth MIC, N. gonorrhoeae ATCC 49226. Particulars: Neisseria gonorrhoeae, ATCC49226; N. gonorrhoeae ATCC 49226, liquid broth; read-out: Minimum Inhibitory Concentration, N. gonorrhoeae ATCC 49226. Type of test: cell-based. An outline of the steps: as §1
The next test addresses E. coli PBP1b (Escherichia coli (strain K12), UniProt P02919). The experiment in a line: Radioligand competition binding assay with 14C-labeled boronic acid probe, PBP1b. An excerpt:
To determine the ability of boronic acid-based test PBP inhibitors to bind Penicillin Binding Proteins (PBPs), a radio-labelled boronic acid PBP inhibitor
[drawing 751] was used in competition binding assays to determine boronic acid PBP inhibitor binding to PBP1a or PBP1b from Escherichia coli. PBP1a and PBP1b were purified as described previously (Bertsche, U.; et al., J. Biol. Chem. 2005, 280 (45), 38096-38101; Born, P.; et al., J. Biol. Chem. 2006. 281 (37), 26985-26993). To establish assay conditions for competition binding, an enzyme titration/saturation binding experiment was performed. Saturation binding was performed in a buffer comprised of 20 mM Tris (pH 7.5), 500 mM NaCl and 0.1% (v/v) TritonX-100, with PBP1a/PBP1b at a final concentration of 0.1 μM and Compound A at final concentrations ranging from 0-100 μM. Mixtures were incubated for 60 minutes, then applied to Zeba Spin Desalting columns or plates (ThermoFisher Scientific) and centrifuged at 1000-1500×g for 2 minutes. The flow through, containing PBP bound with Compound A, was recovered and 100 μL mixed with 5 mL of UltimaGold liquid scintillation cocktail (Perkin Elmer), and the radioactivity counted using a Beckman Coulter LS 6500 Multipurpose scintillation counter. PBP binding of Compound A approached saturation at 20 μM of ^14C-labeled probe. The competition binding assay was validated using the beta-lactam ampicillin, with Compound A at a final concentration of 20 μM, PBP1a/PBP1b at a final concentration of 0.1 μM. PBP1a/PBP1b was incubated with ampicillin in a 96-well microplate for 60 minutes, then Compound A was added and the mixtures incubated for an additional 60 minutes. The mixtures were then applied to Zeba Spin desalting plates and centrifuged at 1000×g for 2 minutes. The flow through was recovered and 100 μl mixed with 5 ml of UltimaGold liquid scintillation cocktail and the radioactivity counted. […] Binding assays with boronic acid PBP inhibitors were performed in an identical fashion. The potency of boronic acid PBP inhibitors was reported as the EC50 value.

A further test has as its system E. coli AG100. Nature of the test: Broth microdilution MIC, E. coli AG100 (wild-type parent). Type of test: cell-based. The conditions noted are these: Escherichia coli; wild-type parent E. coli AG100, broth microdilution; read-out: MIC E. coli AG100. Put shortly:
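Starting inoculum of 5×10^5 CFU/mL, from colonies grown 3-5 h in Mueller-Hinton broth with divalent cations, added to two-fold compound dilution series.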
A general note: Broth dilution looks for growth in wells or tubes with falling amounts of substance.

For a further test, the system named is E. coli AG100A. The experiment in a line: microbe, parasite or virus in culture. The test is classed as cell-based. The conditions noted are these: Escherichia coli, read-out: MIC E. coli AG100A. Put shortly:
(§2)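 MIC = lowest concentration showing no visible growth after 16-20 h at 37° C. Cation-adjusted MH broth, 2-fold serial dilutions, starting inoculum 5×10^5 CFU/mL, per CLSI methods.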

For the next test, the system named is E. coli D22. The experiment in a line: microbe, parasite or virus in culture. Type of test: cell-based. Particulars: Escherichia coli; hyper-permeable E. coli D22, broth microdilution; read-out: MIC E. coli D22. Put shortly:
as §2

For a further test, the system named is E. coli 901C. Nature of the test: microbe, parasite or virus in culture. The test is classed as cell-based. The conditions noted are these: Escherichia coli; hyper-permeable E. coli 901C, broth microdilution; read-out: MIC E. coli 901C. An outline of the steps: as §2
For a further test, the system named is K. pneumoniae SI-117. The experiment in a line: microbe, parasite or virus in culture. The test is classed as cell-based. The conditions noted are these: Klebsiella pneumoniae, SI117, read-out: MIC K. pneumoniae SI-117. Put shortly:
as §2

The next test deals with K. pneumoniae UMM. The experiment in a line: microbe, parasite or virus in culture. Type of test: cell-based. Particulars: Klebsiella pneumoniae; K. pneumoniae UMM producing SHV-5 and KPC-2; read-out: MIC K. pneumoniae UMM. Put shortly:
as §2

In the next test the test system is E. coli ATCC 25922. Nature of the test: Broth microdilution MIC, E. coli ATCC 25922. The test is classed as cell-based. The conditions noted are these: Escherichia coli, ATCC25922; E. coli ATCC 25922, broth microdilution; read-out: MIC E. coli 25922. Put shortly:
as §2

The test system of a further test is K. pneumoniae 848844. Nature of the test: microbe, parasite or virus in culture. The test is classed as cell-based, Klebsiella pneumoniae. The conditions noted are these: Klebsiella pneumoniae; K. pneumoniae 848844 producing SHV-11 and KPC-2; read-out: MIC K. pneumoniae 848844. An outline of the steps: as §2
[3] abbreviates: fluorescence polarization competition binding with Bocillin-FL, read-out: E. coli K12 PBP3 Potency.

Among the data in patent US12173018B2, “Penicillin-binding protein inhibitors” (priority 2018, dated 2024) are MIC and EC50 values, retold here.

SMILES strings stand for the structures. In brackets after ≈: the same amount, converted by molar mass. Like-named read-outs stand apart in the source and are kept apart here. Where only a bound is given, the exact number is not on record here.

Sequence of E. coli PBP1b (P02919 whole entry): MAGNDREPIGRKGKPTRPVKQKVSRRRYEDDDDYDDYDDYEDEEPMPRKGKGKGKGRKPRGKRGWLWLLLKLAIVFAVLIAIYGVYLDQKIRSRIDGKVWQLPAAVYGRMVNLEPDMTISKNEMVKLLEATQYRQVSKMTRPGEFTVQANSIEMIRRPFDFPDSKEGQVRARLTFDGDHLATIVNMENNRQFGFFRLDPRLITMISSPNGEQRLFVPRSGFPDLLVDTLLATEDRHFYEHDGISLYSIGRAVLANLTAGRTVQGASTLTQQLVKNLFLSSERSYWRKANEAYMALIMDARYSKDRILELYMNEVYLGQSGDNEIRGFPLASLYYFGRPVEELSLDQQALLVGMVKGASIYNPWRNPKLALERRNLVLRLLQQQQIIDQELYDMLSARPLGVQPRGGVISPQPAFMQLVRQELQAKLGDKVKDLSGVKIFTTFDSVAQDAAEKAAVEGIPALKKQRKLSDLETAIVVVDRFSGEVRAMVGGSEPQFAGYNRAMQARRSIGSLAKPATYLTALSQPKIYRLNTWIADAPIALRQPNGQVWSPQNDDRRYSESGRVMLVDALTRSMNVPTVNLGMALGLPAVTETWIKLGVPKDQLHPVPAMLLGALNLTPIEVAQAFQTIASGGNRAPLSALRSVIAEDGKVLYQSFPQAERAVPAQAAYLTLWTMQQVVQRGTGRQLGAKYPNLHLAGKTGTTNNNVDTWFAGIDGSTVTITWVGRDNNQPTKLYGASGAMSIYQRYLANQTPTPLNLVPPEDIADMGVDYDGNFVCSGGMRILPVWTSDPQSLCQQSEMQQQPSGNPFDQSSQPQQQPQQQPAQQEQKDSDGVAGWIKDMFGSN
Sequence of E. coli PBP3 (P0AD68 whole entry): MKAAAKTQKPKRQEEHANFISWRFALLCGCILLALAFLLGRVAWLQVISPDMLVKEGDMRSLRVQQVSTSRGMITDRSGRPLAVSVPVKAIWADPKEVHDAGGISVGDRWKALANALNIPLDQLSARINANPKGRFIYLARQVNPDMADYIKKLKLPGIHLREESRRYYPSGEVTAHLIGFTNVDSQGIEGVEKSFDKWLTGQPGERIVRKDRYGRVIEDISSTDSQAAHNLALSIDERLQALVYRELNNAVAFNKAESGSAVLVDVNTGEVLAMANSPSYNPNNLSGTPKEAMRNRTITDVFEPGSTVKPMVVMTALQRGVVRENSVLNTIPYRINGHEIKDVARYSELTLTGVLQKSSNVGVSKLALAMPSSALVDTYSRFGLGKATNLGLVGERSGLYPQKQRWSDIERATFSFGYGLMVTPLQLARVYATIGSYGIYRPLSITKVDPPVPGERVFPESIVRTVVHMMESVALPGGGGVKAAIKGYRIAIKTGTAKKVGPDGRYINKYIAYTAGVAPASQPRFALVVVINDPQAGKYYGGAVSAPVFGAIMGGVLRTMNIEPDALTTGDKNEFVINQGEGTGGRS

With `CCN1CCN(C(=O)NC(C(=O)N[C@H]2Cc3cccc(C(=O)O)c3OB2O)c2ccc(-c3nnn[nH]3)cc2)C(=O)C1=O` (stereo partly shown) [Example 93], the MIC in the test on N. gonorrhoeae FA19 is 4 to 8 µg/mL (≈ 6.94 to 13.9 µM); in the test on N. gonorrhoeae FA1090 it was 0.25 to 0.5 µg/mL (≈ 0.434 to 0.868 µM); in the test on N. gonorrhoeae WHO F, less than 0.125 µg/mL; in test [1] it was 32 to 64 mg/L (≈ 55.5 to 111 µM); in test [2], 4 to 8 µg/mL (≈ 6.94 to 13.9 µM). The EC50 on E. coli PBP3 (setting [3]) is less than 30 µM.
With `CCN1CCN(C(=O)NC(C(=O)N[C@H]2Cc3cccc(C(=O)O)c3OB2O)c2ccc(N)cn2)C(=O)C1=O` (stereo partly drawn) [Example 132, (3R)-3-(2-(5-aminopyridin-2-yl)-2-(4-ethyl-2,3-dioxopiperazine-1-carboxamido)acetamido)-2-hydroxy-3,4-dihydro-2H-benzo[e][1,2]oxaborinine-8-carboxylic acid], the EC50 on E. coli PBP1b was 10 to 100 µM; at E. coli PBP3 (setting [3]), less than 30 µM.
The matching figures for `CCN1CCN(C(=O)NC(C(=O)N[C@H]2Cc3cccc(C(=O)O)c3OB2O)C(O)c2cccc(O)c2O)C(=O)C1=O` (stereo partly drawn) [Example 48, (3R)-3-(3-(2,3-dihydroxyphenyl)-2-(4-ethyl-2,3-dioxopiperazine-1-carboxamido)-3-hydroxypropanamido)-2-hydroxy-3,4-dihydro-2H-benzo[e][1,2]oxaborinine-8-carboxylic acid]: less than 10 µM and greater than 500 µM.
Take `CCN1CCN(C(=O)NC(CC(=O)N[C@H]2Cc3cccc(C(=O)O)c3OB2O)c2cc(O)c(O)c(Cl)c2)C(=O)C1=O` (stereo partly drawn) [Example 43, (3R)-3-(3-(3-chloro-4,5-dihydroxyphenyl)-3-(4-ethyl-2,3-dioxopiperazine-1-carboxamido)propanamido)-2-hydroxy-3,4-dihydro-2H-benzo[e][1,2]oxaborinine-8-carboxylic acid]: the figures for the EC50 at E. coli PBP1b and at E. coli PBP3 were 10 to 100 µM and 30 to 500 µM, respectively.
On to `CCN1CCN(C(=O)NC(C(=O)N[C@H]2Cc3cccc(C(=O)O)c3OB2O)C(Cl)CCCO)C(=O)C1=O` (stereo partly drawn) [Example 129, (3R)-3-(3-chloro-2-(4-ethyl-2,3-dioxopiperazine-1-carboxamido)-6-hydroxyhexanamido)-2-hydroxy-3,4-dihydro-2H-benzo[e][1,2]oxaborinine-8-carboxylic acid], for which the EC50 on E. coli PBP1b is greater than 100 µM; on E. coli PBP3 (setting [3]), greater than 500 µM.
Turning to `CCN1CCN(C(=O)NC(C(=O)N[C@H]2Cc3cccc(C(=O)O)c3OB2O)C(Cl)CCCO)C(=O)C1=O` (stereo partly drawn) [Example 130, (3R)-3-(3-chloro-2-(4-ethyl-2,3-dioxopiperazine-1-carboxamido)-6-hydroxyhexanamido)-2-hydroxy-3,4-dihydro-2H-benzo[e][1,2]oxaborinine-8-carboxylic acid], the EC50 on E. coli PBP1b (read-out: E. coli K12 PBP1b EC50, competition binding with 14C-labeled boronic acid probe) is greater than 100 µM.
For `O=C(O)c1cccc2c1OB(O)[C@@H](NC(=O)C(NC(=O)N1CCNC1=O)c1ccc(O)c(O)c1Cl)C2` (stereo partly drawn) [Example 52, (3R)-3-(2-(2-chloro-3,4-dihydroxyphenyl)-2-(2-oxoimidazolidine-1-carboxamido)acetamido)-2-hydroxy-3,4-dihydro-2H-benzo[e][1,2]oxaborinine-8-carboxylic acid], the MIC with N. gonorrhoeae FA19 was greater than 64 µg/mL; with N. gonorrhoeae FA1090 it was less than 0.125 µg/mL; in the test with N. gonorrhoeae WHO F, less than 0.125 µg/mL; in [1], 128 to 256 mg/L (≈ 247 to 494 µM); in [2], 0.25 to 0.5 µg/mL (≈ 0.482 to 0.964 µM).
On E. coli PBP1b, `CCN1CCN(C(=O)NC(C(=O)N[C@H]2Cc3cccc(C(=O)O)c3OB2O)c2ccccn2)C(=O)C1=O` (stereo partly drawn) [Example 56, (3R)-3-(2-(4-ethyl-2,3-dioxopiperazine-1-carboxamido)-2-(pyridin-2-yl)acetamido)-2-hydroxy-3,4-dihydro-2H-benzo[e][1,2]oxaborinine-8-carboxylic acid] came in with an EC50 greater than 100 µM.
Take `CCN1CCN(C(=O)NC(C(=O)N[C@H]2Cc3cccc(C(=O)O)c3OB2O)c2ncc(O)cn2)C(=O)C1=O` (stereo partly drawn) [Example 202, (3R)-3-(2-(4-ethyl-2,3-dioxopiperazine-1-carboxamido)-2-(5-hydroxypyrimidin-2-yl)acetamido)-2-hydroxy-3,4-dihydro-2H-benzo[e][1,2]oxaborinine-8-carboxylic acid]: the MIC in the test on E. coli AG100 lay within 32 to 64 µg/mL; in the test on N. gonorrhoeae FA19, 4 to 8 µg/mL (≈ 7.6 to 15.2 µM); in the test on E. coli AG100A, 2 to 4 µg/mL; in the test with E. coli D22 it was 8 to 16 µg/mL; in the test on E. coli 901C, 0.5 to 1 µg/mL; in the test with K. pneumoniae SI-117, 32 to 64 µg/mL. Moreover, the MIC with K. pneumoniae UMM was 32 to 64 µg/mL; in the test with N. gonorrhoeae FA1090, 0.25 to 0.5 µg/mL (≈ 0.475 to 0.95 µM); in the test with N. gonorrhoeae WHO F, 0.25 to 0.5 µg/mL (≈ 0.475 to 0.95 µM); in the test on E. coli ATCC 25922, 32 to 64 µg/mL; in the test with K. pneumoniae 848844, greater than 128 µg/mL; in [2], 4 to 8 µg/mL (≈ 7.6 to 15.2 µM). The compound further yielded an EC50 at E. coli PBP3 of 30 to 500 µM.
